Results taken from patent publication US20100016319A1, “ARYLMETHYLENE UREA DERIVATIVE AND USE THEREOF” (TORAY INDUSTRIES, INC. a corporation of Japan, priority 2005, published 2010).

Key:
DSS-induced colitis = assay: Dextran sulfate sodium (DSS)-induced colitis model of mice, rectal bleeding score; assay type: in vivo, BALB/c mice; details: 30 mg/kg orally every day from Day 27 to Day 31
Experimental: (§1) Female BALB/c mice (Japan SLC) of 7 to 9 weeks old were allowed to freely drink 3 w/v % dextran sulfate sodium (DSS) for 5 to 7 days, and then to freely drink sterilized distilled water for 5 days. This procedure was repeated 3 times to induce colitis. The uninduced (background) group was allowed to freely drink sterilized distilled water. The compound described in Example 2 was orally administered to the mice at a dose of 30 mg/kg every day from Day 27 to Day 31 counted from the start of the test, and rectal bleeding was scored (0: occult blood-negative, 2: occult blood-positive, 4: apparent bleeding) by using the method described by Murthy et al (see, for example, Dig Dis Sci., 38, 1722 (1993)).
(§2) On the other hand, the same test as in Example 452 was repeated except that 1-(4-(pyridin-4-yloxy)benzyl)-3-(3-t-butylisoxazol-5-yl)urea (the structural formula thereof is shown below) which is a compound included in WO 04/037789 was used in place of the compound of Example 2. The score on Day 32 (the last day of the test) of the colitis-uninduced group was 0, while the score of the colitis-induced group rose to 1.2±0.2.
as §1, with “Example 10” for “Example 2”
as §2, with “Example 453” for “Example 452”, “that 1-(4-(pyridin-4-yloxy)benzyl)-3-([…])urea” for “that 1-(4-(pyridin-4-yloxy)benzyl)-3-(3-t-butylisoxazol-5-yl)urea”, “Example 10.” for “Example 2.”

[1] = test system: cyclophosphamide-induced cystitis rats; assay: Cyclophosphamide-induced overactive bladder (cystitis) model in rats, cystometrogram; assay type: in vivo, SD rats; details: i.v., from a dose of 3 mg/kg; FIG. 3-A
Experimental: Using cyclophosphamide-induced cystitis rats known as an overactive bladder (pollakiuria) model based on the hyperactivity of afferent sensory C-fibers, the effect of compounds on the cystometrograms was investigated.
Female SD rats were pre-treated with cyclophosphamide (150 mg/kg) intraperitoneally one day before (18 hours before) the assay in order to induce cystitis. On the next day, each of rats was anesthetized with an intrapertoneral injection of urethane (1.0 g/kg). Next, a small incision was formed in the hypogastrium, and both ureters were ligated, followed by forming small incision in the ureters at the side of the kidney. Then, the bladder apex was incised and a polyethylene tube filled with physiological saline was inserted and indwelled. The other end of the tube was equipped with a three-necked cock, and one of the necks thereof was connected to a pressure transducer for the measurement of intravesical pressure and the other neck was connected to an infusion pomp in order to infuse physiological saline. Thirty minutes after the surgery was completed, physiological saline was continuously infused (3.6 mL/hr) in order to obtain a continuous cystometrograms. One minute before the infusion, a solution of each test compound or the solvent thereof was administered from a caudal vein in a volume of 0.5 mL/kg. […]

[2] = test system: rhythmic bladder contractions; assay: Rhythmic bladder contractions model in anesthetized rats; assay type: in vivo, SD rats; details: i.v., from a dose of 3 mg/kg; 10 minutes before and after administration; FIG. 1
Text: Using anesthetized rat rhythmic bladder contractions model, the inhibitory effect of the arylmethylene urea derivatives of the present invention on the detrusor hyperreflexia was investigated.
Female SD rats were anesthetized with an intraperitoneal injection of urethane (1.0 g/kg). A polyethylene tube was inserted from external urethral orifice into the bladder and the tube was fixed by ligating. The other end of the tube was equipped with a three-necked cock, and one of the necks thereof was connected to a pressure transducer for the measurement of intravesical pressure and the other neck was connected to a syringe for the infusion of physiological saline into the bladder. Thirty minutes after the surgery was completed, physiological saline in appropriate volume was infused via the tube in order to induce rhythmic bladder contractions. After stable rhythmic bladder contractions were obtained, a solution of each test compound or the solvent thereof was administered from a caudal vein in a volume of 0.5 mL/kg, and the effect on the frequency of bladder contractions was investigated. As the test compounds, the compounds of Examples 2 and 9 were used.
In each of the figures, the ordinate indicates the number of rhythmic bladder contractions for 10 minutes before and after administration of the compound.

[3] = test system: TNFα production in human whole blood; assay: Inhibitory activity on LPS-induced TNFα production in human whole blood; assay type: cell-based; details: LPS stimulation, 37° C., 5 hours
Experimental: Inhibitory activities of the arylmethylene urea derivatives according to the present invention to the production of TNFα induced by stimulation with a lipopolysaccharide (LPS) were investigated using human whole blood.
After mixing each of the compounds of the present invention with human blood in a 96-well flat-bottom plate, the lipopolysaccharide (LPS) was added and the mixture was allowed to react at 37° C. for 5 hours. After the reaction, the resulting mixture was centrifuged at room temperature for 15 minutes, and supernatant of the resultant was recovered. For the quantification of TNFα in the supernatant, human cytokine kit (CIS biointernational) was used.

Structure (SMILES): Cc1ccc(-n2nc(C(C)(C)C)cc2NC(=O)NCc2ccccc2Oc2ccnc(N3CCOCC3)n2)cc1 [Example 2, 1-(2-(2-morpholinopyrimidin-4-yloxy)benzyl)-3-(3-t-butyl-1-p-tolyl-1H-pyrazol-5-yl)urea]
- amelioration of symptoms / improvement in the rectal bleeding score (in words) (DSS-induced colitis; Day 32): apparent amelioration of symptoms was observed
- rectal bleeding score on Day 32 (0: occult blood-negative, 2: occult blood-positive, 4: apparent bleeding) (DSS-induced colitis; female BALB/c mice, 3 w/v % DSS): 0.2±0.1
- effect on the increase in the frequency of urination (voiding episodes during 20 minutes) [1]: dose-dependently reduced the increase in the frequency of urination
- effect on the number of rhythmic bladder contractions [2]: inhibited the rhythmic bladder contractions dose-dependently
- IC50 [3]: 720 nM
